Reference: patent US20250313569A1, “Pharmaceutical Compounds And Compositions As Modulators Of MAS-Related G-Protein Receptor X2” (Enanta Pharmaceuticals, Inc., priority 2024, published 2025)

Target: T1, human MRGPRX2 (Homo sapiens, UniProt Q96LB1)
T1 construct: expressed in transfected cells; host or cells: HEK293
T1 sequence (Q96LB1 1-330): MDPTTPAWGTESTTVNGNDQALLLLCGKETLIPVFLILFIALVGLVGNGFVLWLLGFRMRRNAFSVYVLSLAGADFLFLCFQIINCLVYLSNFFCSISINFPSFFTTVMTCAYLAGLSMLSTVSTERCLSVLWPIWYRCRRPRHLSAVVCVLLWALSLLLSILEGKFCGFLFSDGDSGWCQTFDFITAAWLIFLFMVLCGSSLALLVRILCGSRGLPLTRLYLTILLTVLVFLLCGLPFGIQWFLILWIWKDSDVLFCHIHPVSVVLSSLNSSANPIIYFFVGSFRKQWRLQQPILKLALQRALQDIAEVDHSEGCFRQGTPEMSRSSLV
Assay: MRGPRX2 IP-1 Gq HTRF assay in HEK293 cells stably expressing human MRGPRX2, Cortistatin-14 at EC75
Format: cell-based
Conditions: 2 hours at 37° C., cellular IP-1
Method: HEK293 cells stably expressing human MRGPRX2 were grown in Dulbecco's Modified Eagle Medium (DMEM) supplemented with 10% fetal bovine serum (FBS), 1% Glutamax, and 1 μg/mL of puromycin. Cells were maintained in a 37° C., 5% CO2 humidified incubator.
Cells were plated in a 384-well assay plate at a density of 20,000 cells per well overnight. Compounds were solubilized at 10 mM in DMSO and added as a 10-point curve using an ECHO acoustic liquid handler. On the day of the assay, Cortistatin-14 was diluted in assay buffer (provided by IP-One-Gq-HTRF kit purchased from Cisbio, 62IPAPEJ) and added to the assay plate at a final concentration corresponding to the predetermined EC75. Plates were incubated at 37° C. for 2 hours prior to addition of HTRF detection reagents per the manufacturer's instructions. The plates were read on a Perkin Elmer Envision plate reader. The HTRF ratio and cellular IP-1 levels were calculated. XLfit was used to calculate an EC50 value for each compound using a 4-parameter logistic curve fitting model. EC50 ranges are reported as follows: A<100 nM; B 0.1-1 μM; C>1 μM.

| Compound | EC50 |
| --- | --- |
| CS(=O)(=O)Nc1cccc(-c2cn([C@@H]3CNC[C@H](Nc4cc(C(F)(F)F)nc5ccc(Cl)cc45)C3)nn2)c1 [Example 54, N-(3-(1-((3S,5R)-5-((6-Chloro-2-(trifluoromethyl)quinolin-4-yl)amino)piperidin-3-yl)-1H-1,2,3-triazol-4-yl)phenyl) methanesulfonamide] | 100 to 1000 nM |
| CC(=O)N1C[C@H](Nc2cc(C(F)(F)F)nc3ccc(Cl)cc23)C[C@H](n2cc(-c3cccc(NS(C)(=O)=O)c3)nn2)C1 [Example 55] | 100 to 1000 nM |
| COc1cc(C(=O)N[C@H]2C[C@@H](Nc3cc(C(F)(F)F)nc4ccc(Cl)cc34)CN(C(C)=O)C2)cc2cn(C(F)F)nc12 [Example 56] | < 100 nM |
| CCn1cc2cc(C(=O)N[C@H]3C[C@@H](Nc4cc(C(F)(F)F)nc5ccc(Cl)cc45)CN(C(C)=O)C3)ccc2n1 [Example 57] | < 100 nM |
| CC(=O)N1C[C@@H](NC(=O)c2ccc3[nH]ncc3c2)C[C@@H](Nc2cc(C(F)(F)F)nc3ccc(Cl)cc23)C1 [Example 58] | < 100 nM |
| CC(=O)N1C[C@@H](NC(=O)c2cn(C(F)F)nc2C(F)F)C[C@@H](Nc2cc(C(F)(F)F)nc3ccc(Cl)cc23)C1 [Example 59] | < 100 nM |
| COc1cc(C(=O)N[C@H]2C[C@@H](Nc3cc(C(F)(F)F)nc4ccc(Cl)cc34)CN(C(C)=O)C2)ccc1OC1CC1 [Example 60] | 100 to 1000 nM |
| CC(=O)N1C[C@@H](NC(=O)c2cnn(CC3CC3)c2)C[C@@H](Nc2cc(C(F)(F)F)nc3ccc(Cl)cc23)C1 [Example 61] | < 100 nM |
| CC(=O)N1C[C@@H](NC(=O)c2ccc(C)nc2)C[C@@H](Nc2cc(C(F)(F)F)nc3ccc(Cl)cc23)C1 [Example 62] | 100 to 1000 nM |
| CC(=O)N1C[C@@H](NC(=O)c2ccc(C(F)(F)F)nc2)C[C@@H](Nc2cc(C(F)(F)F)nc3ccc(Cl)cc23)C1 [Example 63] | 100 to 1000 nM |
| CC(=O)N1C[C@@H](NC(=O)c2cnn(CC(C)(C)O)c2)C[C@@H](Nc2cc(C(F)(F)F)nc3ccc(Cl)cc23)C1 [Example 64] | < 100 nM |
| CC(=O)N1C[C@@H](NC(=O)c2cn(CC(C)(C)O)nc2Cl)C[C@@H](Nc2cc(C(F)(F)F)nc3ccc(Cl)cc23)C1 [Example 65] | < 100 nM |
| CC(=O)N1C[C@@H](NC(=O)c2ccc(OC(F)(F)F)cc2)C[C@@H](Nc2cc(C(F)(F)F)nc3ccc(Cl)cc23)C1 [Example 66] | 100 to 1000 nM |

Continued, values first:

| EC50 | Compound |
| --- | --- |
| 100 to 1000 nM | CC(=O)N1C[C@@H](NC(=O)c2ccc(C(F)(F)F)cc2)C[C@@H](Nc2cc(C(F)(F)F)nc3ccc(Cl)cc23)C1 [Example 67] |
| < 100 nM | CC(=O)N1C[C@@H](NC(=O)c2cnn(C3CCCCC3)c2)C[C@@H](Nc2cc(C(F)(F)F)nc3ccc(Cl)cc23)C1 [Example 68] |
| 100 to 1000 nM | CC(=O)N1C[C@@H](NC(=O)c2cnn(-c3ccccc3)c2)C[C@@H](Nc2cc(C(F)(F)F)nc3ccc(Cl)cc23)C1 [Example 69] |
| 100 to 1000 nM | CC(=O)N1C[C@@H](NC(=O)c2cnn(-c3ccc(F)cc3)c2)C[C@@H](Nc2cc(C(F)(F)F)nc3ccc(Cl)cc23)C1 [Example 70] |
| > 1000 nM | CC(=O)N1C[C@@H](Nc2nnc(-c3ccc(F)cc3)o2)C[C@@H](Nc2cc(C(F)(F)F)nc3ccc(Cl)cc23)C1 [Example 71] |
| < 100 nM | CS(=O)(=O)Nc1cccc(C(=O)N[C@H]2C[C@@H](Nc3cc(C(F)(F)F)nc4ccc(Cl)cc34)CN(CC(F)F)C2)c1 [Example 73] |
| > 1000 nM | O=C(N[C@H]1C[C@@H](Nc2cc(C(F)(F)F)nc3ccc(Cl)cc23)CS(=O)(=O)C1)c1ccc(F)cc1 [Example 140] |
